Results as given in US9073961B2, “Substitution derivatives of N6 -benzyladenosine-5′-monophosphate, methods of preparation thereof, use thereof as medicaments, and therapeutic preparations containing these compounds” (UNIVERZITA PALACKEHO V OLOMOUCI, priority 2010, dated 2015).

What was measured:
p21^WAF-1 = test: Induction of p21WAF-1 expression in MCF-7 cells (immunoblot); assay type: cell-based
Protocol: MCF-7 cells cultured at 37° C. in 5% CO2 atmosphere in DMEM medium supplemented with 10% foetal calf serum were treated with compound 28 concentration ranges of 0-100 μM. Compound 28 was added into the medium from the 100 mM stock solution in DMSO. Cells were harvested 12 hours after incubation with compound 28, centrifuged (1000 rpm, 4° C., 5 min), washed twice by ice-cold PBS and re-centrifuged. These washed cells were then lysed by 1×CSB (loading buffer for SDS-PAGE, i.e. electrophoresis of proteins in polyacrylamide gel containing SDS). Cell lysate proteins were separated by SDS-PAGE and transferred onto a nitrocelulose (NC) membrane. NC membrane was blocked by 5% skimmed milk, 0.1% Tween 20 in PBS. Protein level of p21^WAF-1 and actin (as a loaded protein volume control) were detected immunochemically using commercially available specific monoclonal antibodies anti-p21^WAF-1 (Ab-1, Calbiochem) and anti-Actin (Clone AC-40, Sigma-Aldrich). The primary antibodies bind to target proteins were detected using rabbit secondary peroxidase-labeled antibody (RAM-Px, DAKO), followed by chemiluminiscence (ECL, Amersham-Pharmacia).
MCF-7 cells were incubated in the presence of 1 μmol of compound 28. In various time intervals from the moment of administration of 28 the cells were harvested and lyzed. […]

[1] = test system: HOS (human osteogenic sarcoma); test: Calcein AM cytotoxicity assay, HOS; assay type: cell-based; conditions: 72 hours incubation
In short: (§1)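 Cells pre-incubated 24 h at 37° C., 5% CO2, then exposed 72 h to compound at six 3-fold dilutions (top 166.7 μM), in triplicate. Calcein AM added to 1 μg/ml final; fluorescence read after 1 h. GI50 is the concentration giving 50% reduction of esterase activity, taken from dose-response curves.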

[2] = test system: Normal human fibroblasts BJ; test: Calcein AM cytotoxicity assay, BJ; assay type: cell-based; conditions: 72 hours incubation
In short: as §1

[3] = test system: HL-60 (promyelocytic leukemia); test: Calcein AM cytotoxicity assay, HL60; assay type: cell-based, human; conditions: 72 hours incubation
In short: as §1

[4] = test system: K-562 (human erythroleukemia); test: Calcein AM cytotoxicity assay, K-562; assay type: cell-based; conditions: 72 hours incubation
In short: as §1

[5] = test system: G-361 (human malignant melanoma); test: Calcein AM cytotoxicity assay, G-361; assay type: cell-based; conditions: 72 hours incubation
Source text: Because toxic compounds negatively influence metabolic processes in cells, many standard cytotoxicity assays are based on measurement of metabolisation rate of various artificial substrates. Resulting product is then quantified e.g. by means of spectrometry. The assays can be easily modified for use in 96-well plates. For evaluation of cytotoxic effect of the novel substituted 9-substituted cytokinin derivatives of this invention, a microtiter assay based on quantification of metabolisation of Calcein AM was used. The assay is widely used in drug screening programs and in chemosensitivity testing. In the living cells, Calcein AM is enzymatically hydrolysed and accumulation of resulting calcein is manifested by green fluorescence.
In the routine screening the following cell lines have been used: CEM (T-lymphoblastoid leukemia), HL-60 (promyelocytic leukemia), K-562 (human erythroleukemia), MCF-7 (breast carcinoma), HOS (human osteogenic sarcoma), and G-361 (human malignant melanoma). Normal human fibroblasts BJ were used as a control for routine screening of the compounds. The cells were kept in Nunc/Corning 80 cm^2 plastic bottles and grown in cell culture medium (DMEM containing 5 g/l glucose, 2 mM glutamine, 100 U/ml penicilline, 100 μg/ml streptomycine, 10% fetal bovine serum and sodium hydrogencarbonate), the compounds were prepared according to the procedure of the present invention.
The cell suspensions were prepared and diluted according to the particular cell type and the expected target cell density (2.500-30.000 cells per well based on cell growth characteristics) and pippetted (80 μl) into 96-well plates. Inoculates were allowed a pre-incubation period of 24 hours at 37° C. and 5% CO2 for stabilisation. Tested compound was added in total volume of 20 μl of water at time zero. Usually, test compound was evaluated at six 3-fold dilutions. In routine testing, the highest concentration tested was 166.7 μM. All drug concentrations were tested in triplicates. Incubations of cells with the test compounds lasted for 72 hours at 37° C., in 5% CO2 atmosphere and 100% humidity. At the end of incubation period Calcein AM in PBS was added into final concentration of 1 μg/ml. After another 1 hour of incubation fluorescence (FD) was measured with the Labsystem FIA Reader Fluoroscan Ascent (Microsystems). Tumor cell survival (TCS) was estimated using the following equation: […]=(FDdrug exposed well/FDcontrol well)×100%. The GI50 value, the drug concentration causing 50% reduction of esterase activity, was calculated from the obtained dose response curves (FIG. 1).
Cytoxicity of novel compounds was tested on panel of cell lines of different histogenetic and species origin (Table 3). […] The effective novel derivatives killed tumour cells in concentrations close to 0.1-50 μM.

MCF-7 (breast carcinoma) = test: Calcein AM cytotoxicity assay, MCF7; assay type: cell-based; conditions: 72 hours incubation
In short: as §1

Human lymphocytes = test: Immunosuppressive activity, 3H-thymidine incorporation in concanavalin A activated lymphocytes; assay type: cell-based; conditions: 72 hours, [3H]-TdR incorporation, read-out: Human lymphocytes ED50
Source text: One of the most important parameters of specific cellular immunity is the proliferative response of lymphocytes to antigens or polyclonal mitogens. The majority of normal mammalian peripheral lymphocytes comprise resting cells. Antigens or nonspecific polyclonal mitogens have the capacity to activate lymphoid cells and this is accompanied by dramatic changes of intracellular metabolism (mitochondrial activity, protein synthesis, nucleic acids synthesis, formation of blastic cells and cellular proliferation). […] Variety of in vitro assays was developed to measure proliferative response of lymphocytes. The most commonly used is ^3H-thymidine incorporation method.
During cell proliferation, DNA has to be replicated before the cell is divided into two daughter cells. This close association between cell doublings and DNA synthesis is very attractive for assessing cell proliferation. If labelled DNA precursors are added to the cell culture, cells that are about to divide incorporate the labelled nucleotide into their DNA. Traditionally, those assays usually involve the use of radiolabelled nucleosides, particularly tritiated thymidine ([^3H]-TdR). The amount of [^3H]-TdR incorporated into the cellular DNA is quantified by liquid scintillation counting.
Human heparinized peripheral blood was obtained from healthy volunteers by cubital vein punction. The blood was diluted in PBS (1:3) and mononuclear cells were separated by centrifugation in Ficoll-Hypaque density gradient (Pharmacia, 1.077 g/ml) at 2200 rpm for 30 minutes. Following centrifugation, lymphocytes were washed in PBS and resuspended in cell culture medium (RMPI 1640, 2 mM glutamine, 100 U/ml penicillin, 100 μg/ml streptomycin, 10% fetal calf serum and sodium bicarbonate).
The cells were diluted at target density of 1.100.000 cells/ml and were added by pipette (180 μl) into 96-well microtiter plates. Four-fold dilutions of the intended test concentration were added at time zero in 20 μl aliquots to the microtiter plate wells. Usually, test compound was evaluated at six 4-fold dilutions. In routine testing, the highest well concentration was 266.7 μM. All drug concentrations were examined in duplicates. All wells with exception of unstimulated controls were activated with 50 μl of concanavalin A (25 μg/ml). Incubations of cells with test compounds lasted for 72 hours at 37° C., in 5% CO2 atmosphere and 100% humidity. At the end of incubation period, the cells were assayed by using the [^3H]-TdR:
Cell cultures were incubated with 0.5 μCi (20 μl of stock solution 500 μCi/ml) per well for 6 hours at 37° C. and 5% CO2. The automated cell harvester was used to lyse cells in water and adsorb the DNA onto glass-fiber filters in the format of microtiter plate. The DNA incorporated [^3H]-TdR was retained on the filter while unincorporated material passes through. The filters were dried at room temperature overnight, sealed into a sample bag with 10-12 ml of scintillant. The amount of [^3H]-TdR present in each filter (in cpm) was determined by scintillation counting in a Betaplate liquid scintillation counter. The effective dose of immunosuppressant (ED) was calculated using the following equation: ED=(CCPMdrug exposed well/mean CCPMcontrol wells)×100%. The ED50 value, the drug concentration inhibiting proliferation of 50% of lymphocytes, was calculated from the obtained dose response curves.
To evaluate immunosuppressive activity of substituted adenines, their ability to inhibit polyclonal mitogen induced proliferation of normal human lymphocytes was analyzed (Table 4). […] Effective immunosuppressive dose of new derivatives under in vitro conditions was close to 10-40 μM.

[6] = test system: CEM (T-lymphoblastoid leukemia); test: Calcein AM cytotoxicity assay, CEM; assay type: cell-based; conditions: 72 hours incubation, Calcein AM
In short: as §1

EC50 (Human lymphocytes): 1.2 µM
SMILES: COc1cccc(CNc2ncnc3c2ncn3[C@@H]2O[C@H](COP(=O)(O)O)[C@@H](O)[C@H]2O)c1O [Compound 28, 6-(2-hydroxy-3-methoxybenzylamino)purine riboside-5′-monophosphate]
time of effective induction of p21^WAF-1 after addition (p21^WAF-1; 1 μmol concentration): 6 to 24 h
p21^WAF-1 protein induction in relation to concentration (p21^WAF-1; 12 hours, 0-100 μM tested, effective in range of units imol per liter): efficient p21^WAF-1 protein induction is achieved
GI50 [1]: 24.1 µM
GI50 [2]: 69.7 µM
GI50 [3]: 0.5 µM
GI50 [4]: 2.1 µM
GI50 [5]: 27.9 µM
GI50 (MCF-7 (breast carcinoma)): 30.4 µM
GI50 [6]: 0.3 µM
